The values below come from patent US20260174680A1, “MAMMARY GLAND TISSUE HEALTH MAINTENANCE AGENT HAVING GABA AS ACTIVE INGREDIENT” (SANWA SHURUI CO., LTD., priority 2022, published 2026).

For series [1], the system named is mammary gland tissue. The series can be described thus: Animal experiment: E2-induced mammary gland tissue dysplasia and invasion in scid mice. It counts as in vivo. Conditions: 25 days. The protocol: Ten-week-old Scid mice were intraperitoneally administered with 6 μg of E2 per day for 25 days, and were simultaneously intraperitoneally administered with 6 μg of Equol per day and/or were intraperitoneally administered with 0.5 mg (low) or 5 mg (high) of GABA per day. The fourth mammary gland was sampled 24 hours after the final administration, and photographs are shown of tissue observation by hematoxylin and eosin (H&E) staining (upper row) and Elastica van Gieson (EVG) staining (lower row).
This mouse model system that develops early stage breast cancer is an experimental system developed by the present inventors, and a system in which scid mice, which are a mouse strain with reduced DNA repair ability, are used to be administered estradiol (E2) intraperitoneally for […] to induce mammary gland tissue dysplasia. […] The present invention also uses this experimental system to evaluate the effects of GABA or the combined use of GABA and equol.
Ten-week-old scid mice were intraperitoneally administered PBS as a negative control group, 6 μg/day of E2 as a positive control group, 6 μg of E2+6 μg/day of equol (Eq) in experimental group 1, 6 μg of E2+0.5 mg/day of GABA in experimental group 2, 6 μg of E2+5 mg/day of GABA in experimental group 3, 6 μg of E 2+6 μg of Eq+0.5 mg of GABA in experimental group 4, and 6 μg of E 2+6 μg of Eq+5 mg of GABA in experimental group 5, with six mice in each group, every morning for 25 days. 24 hours after the final administration, the fourth mammary gland was sampled, and the tissue was observed by hematoxylin and eosin (H&E) staining and Elastica van Gieson (EVG) staining.
In addition, the frequency of occurrence of dysplasia in sections of the mammary gland tissue was evaluated.
Mouse (female): C. B-17/Icr-scid/scid Jel was purchased from CLEA Japan.
The E2 used was E2758 manufactured by SIGMA, the Equol (Eq) used was SML2147 manufactured by SIGMA, and the GABA used was A5835 manufactured by SIGMA.

A further series has as its system MCF7 (ATCC HTB-22) cells. The series is described as follows: Cell test: E2-induced DNA double-strand break signals in MCF7 cells (P-Histone H2AX immunostaining). It counts as cell-based. Conditions: 4 hours.
Series [2] has as its system mammary gland tissue. Conditions: equol intraperitoneally, with estradiol administered (Non-Patent Literature 1); cited from earlier work.
The mark [3] stands for this setting: experimental groups 1 to 5: Eq or GABA added to 6 μg/day E2 i.p.

Experimental for MCF7 (ATCC HTB-22) cells: After MCF 7 (ATCC HTB-22) cells were cultured, and the medium was removed, 200 μL of PBS adjusted to E2-free, 10 nM of E2, or 10 nM of E2+0.3 μg/mL to 1.1 μg/mL of GABA was added to each well, and the cells were incubated at 37° C. and 5% of CO2 for 4 hours. The cells were visualized by adding a primary histone antibody, and the DNA double-strand break signals per cell were measured by observation under a microscope.
The cultured cells used were MCF7 (ATCC HTB-22). MCF7 cells were cultured for 2 days to 3 days in phenol red-free RPMI 1640 medium containing 10% of fetal bovine serum and 1 nM of E2.
The cells were passaged into phenol red-free RPMI medium containing 10% of charcoal-stripped serum (Charcoal-Stripped FBS, Thermo Fisher) and 1 nM of E 2, and seeded into an 8-well plate (SCS-N28 MAS-Coat, Matsunami) at 400 μL/well. After 1 day to 2 days, the medium on the 8-well plate was removed and replaced with serum-free, phenol red-free RPMI medium, and the cells were starved by culturing for 1 day to align the cell cycle to the G1 phase. […]
The cells were observed under a microscope, the DNA double-strand break signals per cell were measured, and statistical analysis was performed using the Mann-Whitney U-test, with p<0.05 being considered to indicate a significant difference. […]
For each experiment section, DNA double-strand break signals were counted in 100 cells.

Turning to `C[C@]12CC[C@@H]3c4ccc(O)cc4CC[C@H]3[C@@H]1CC[C@@H]2O` [E2, estradiol, reference compound], the “invasion in mammary gland tissue sections (H&E and EVG staining)” value (“invasion” below) in the series with mammary gland tissue [1] (positive control: E2 only, 6 μg/day i.p.) was “showed invasion”.

With `NCCCC(=O)O` [GABA, γ-amino butyric acid], the “frequency of occurrence of dysplasia (average of E2-only positive control taken as 100%)” value is 44% in the series with mammary gland tissue [1] (experimental group 2: 6 μg E2 + 0.5 mg/day GABA i.p.) and 37% in the series on mammary gland tissue [1] (experimental group 3: 6 μg E2 + 5 mg/day GABA i.p.). For the same compound, the “invasion” value in the series with mammary gland tissue [1] (setting [3]) is “no invasion was observed”. In the series on MCF7 (ATCC HTB-22) cells (10 nM E2 + 1.1 μg/mL GABA, Mann-Whitney U-test, p<0.05), the “DNA damage (DNA double-strand break signals per cell)” value is listed as “significantly reduced DNA damage”. Besides, the “number of DNA damages (DNA double-strand break signals per cell)” value in the series with MCF7 (ATCC HTB-22) cells (10 nM E2 + 0.3 to 1.1 μg/mL GABA) is listed as “tended to reduce the number of DNA damages”.

Consider `Oc1ccc([C@H]2COc3cc(O)ccc3C2)cc1` [Eq, equol, reference compound], for which the “frequency of occurrence of dysplasia (average of E2-only positive control taken as 100%)” value with mammary gland tissue [1] (experimental group 1: 6 μg E2 + 6 μg/day equol i.p., negative control 16%) is “approximately 58%”. Further, the “invasion” value with mammary gland tissue [1] (setting [3]) was “no invasion was observed”. Also, the “mammary gland tissue dysplasia” value with mammary gland tissue [2] is recorded as “mammary gland tissue dysplasia was inhibited”.
